Measured values reported in PubChem BioAssay (NCI).
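Exposure lasted 48 hours, with cells grown in 96-well plates and compounds tested at five concentrations. The concentration for 50% growth inhibition is given as GI50. TGI is the concentration that stops growth completely.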

Columns and labels:
Assay in all cases: DTP human tumour cell line panel, 48 h
[1] = tested on: ACHN renal
[2] = tested on: CAKI-1 renal
[3] = tested on: HOP-92 NSCLC
[4] = tested on: MDA-MB-435
[5] = tested on: SW-620 colon
[6] = tested on: EKVX NSCLC
[7] = tested on: A498 renal
[8] = tested on: SK-MEL-5 melanoma
[9] = tested on: NCI-H460 lung
[10] = tested on: HT29 colon
[11] = tested on: PC-3 prostate
[12] = tested on: NCI-H522 lung
[13] = tested on: UO-31 renal
[14] = tested on: SNB-75 CNS
[15] = tested on: OVCAR-8 ovarian
[16] = tested on: CCRF-CEM leukemia
[17] = tested on: SR leukemia
[18] = tested on: HL-60(TB) leukemia
[19] = tested on: SNB-19 CNS
[20] = tested on: SF-539 CNS
[21] = tested on: K-562 leukemia
[22] = tested on: UACC-62 melanoma
[23] = tested on: HS 578T breast
[24] = tested on: NCI-H226 lung
[25] = tested on: MOLT-4 leukemia
[26] = tested on: MCF7 breast
[27] = tested on: U251 CNS
[28] = tested on: RXF 393 renal
[29] = tested on: OVCAR-5 ovarian
[30] = tested on: DU-145 prostate
[31] = tested on: A549 NSCLC
[32] = tested on: SK-MEL-28 melanoma
[33] = tested on: TK-10 renal
[34] = tested on: 786-0 renal
[35] = tested on: SK-MEL-2 melanoma
[36] = tested on: HCT-116 colon
[37] = tested on: HCT-15 colon
[38] = tested on: LOX IMVI melanoma
[39] = tested on: SF-268 CNS
[40] = tested on: NCI-H23 lung
[41] = tested on: UACC-257 melanoma
[42] = tested on: HCC-2998 colon
[43] = tested on: SK-OV-3 ovarian
[44] = tested on: SN12C renal
[45] = tested on: BT-549 breast
[46] = tested on: IGROV1 ovarian
[47] = tested on: HOP-62 NSCLC
[48] = tested on: M14 melanoma
[49] = tested on: MALME-3M melanoma
[50] = tested on: OVCAR-4 ovarian
[51] = tested on: COLO 205 colon
[52] = tested on: T-47D breast
[53] = tested on: SF-295 CNS
[54] = tested on: OVCAR-3 ovarian
[55] = tested on: KM12 colon
[56] = tested on: RPMI-8226 leukemia
[57] = tested on: NCI/ADR-RES ovarian
[58] = tested on: MDA-MB-231 breast

CCOC(=O)Cn1c(C)c(/C=N/NC(=O)c2cc3c(ccc4ccccc43)o2)c2ccccc21
GI50 [1]: 0.926 µM | TGI [1]: 3.21 µM | GI50 [2]: 0.575 µM | TGI [2]: 2.37 µM | GI50 [3]: 0.354 µM | TGI [3]: 4.94 µM | GI50 [4]: 0.0474 µM | TGI [4]: 0.251 µM | GI50 [5]: 0.48 µM | TGI [5]: 11.4 µM | GI50 [6]: 0.662 µM | TGI [6]: 42.5 µM | GI50 [7]: 0.134 µM | TGI [7]: 1.04 µM | GI50 [8]: 0.381 µM | TGI [8]: 1.71 µM | GI50 [9]: 0.383 µM | TGI [9]: 1.79 µM | GI50 [10]: 0.355 µM | TGI [10]: 1.9 µM | GI50 [11]: 0.332 µM | TGI [11]: 6 µM | GI50 [12]: 0.399 µM | TGI [12]: 6.93 µM | GI50 [13]: 0.753 µM | TGI [13]: 2.61 µM | GI50 [14]: 0.244 µM | TGI [14]: 1.42 µM | GI50 [15]: 0.486 µM | GI50 [16]: 0.41 µM | TGI [16]: > 100 µM | GI50 [17]: 0.153 µM | TGI [17]: > 21.8 µM | GI50 [18]: 0.345 µM | TGI [18]: 7.83 µM | GI50 [19]: 0.478 µM | TGI [19]: 16.3 µM | GI50 [20]: 0.316 µM | TGI [20]: 1.28 µM | GI50 [21]: 0.342 µM | TGI [21]: > 100 µM | GI50 [22]: 0.3 µM | TGI [22]: 11 µM | GI50 [23]: 0.514 µM | TGI [23]: 25.2 µM | GI50 [24]: 0.801 µM | TGI [24]: 5.39 µM | GI50 [25]: 0.96 µM | TGI [25]: > 30.1 µM | GI50 [26]: 0.31 µM | TGI [26]: 4.85 µM | GI50 [27]: 0.426 µM | TGI [27]: 4.17 µM | GI50 [28]: 0.319 µM | TGI [28]: 1.08 µM | GI50 [29]: 0.872 µM | TGI [29]: 10.7 µM | GI50 [30]: 0.411 µM | TGI [30]: 2.93 µM | GI50 [31]: 0.627 µM | TGI [31]: 5.85 µM | GI50 [32]: 1.66 µM | TGI [32]: 30.5 µM | GI50 [33]: 1.26 µM | TGI [33]: 3.92 µM | GI50 [34]: 0.491 µM | TGI [34]: 2.24 µM | GI50 [35]: 0.77 µM | TGI [35]: 7.05 µM | GI50 [36]: 0.338 µM | TGI [36]: 1.46 µM | GI50 [37]: 0.408 µM | TGI [37]: 5.45 µM | GI50 [38]: 0.537 µM | TGI [38]: 2.78 µM | GI50 [39]: 1.03 µM | GI50 [40]: 0.669 µM | TGI [40]: 6.91 µM | GI50 [41]: 2.38 µM | TGI [41]: > 30.4 µM | GI50 [42]: 0.609 µM | TGI [42]: 2.84 µM | GI50 [43]: 0.804 µM | TGI [43]: 9.44 µM | GI50 [44]: 0.707 µM | TGI [44]: 3.85 µM | GI50 [45]: 0.853 µM | TGI [45]: 5.13 µM | GI50 [46]: 0.527 µM | TGI [46]: 3.47 µM | GI50 [47]: 0.554 µM | TGI [47]: 4.79 µM | GI50 [48]: 0.307 µM | TGI [48]: 4.35 µM | GI50 [49]: 0.575 µM | TGI [49]: 3.22 µM | GI50 [50]: 1.36 µM | TGI [50]: 9.27 µM | GI50 [51]: 0.401 µM | GI50 [52]: 0.653 µM | TGI [52]: > 27.8 µM | GI50 [53]: 0.323 µM | TGI [53]: 1.65 µM | GI50 [54]: 0.319 µM | TGI [54]: 1.87 µM | GI50 [55]: 0.306 µM | TGI [55]: 1.52 µM | GI50 [56]: 0.443 µM | TGI [56]: 3.12 µM | GI50 [57]: 0.259 µM | TGI [57]: 3.08 µM | GI50 [58]: 0.702 µM | TGI [58]: 3.33 µM
